Starred links: 1 amine or outer side, 2 acyl side, 3 side chain; linkers in the order of their positions; H or OH if unused. Positions of bridges follow the written chain, without caps; N, C: chain ends. Non-standard residues stand in square brackets, D forms with d. Residues, ends and D or L forms follow the SMILES beside them. *: point of attachment. βAsp = O=C(O)[C@H](CC(=O)[*:2])N[*:1]; His(π-Me) = Cn1cncc1C[C@H](N)C(=O)O; For = O=C*
Tests used:
[1] = test system: Mycobacterium tuberculosis H37Rv mc^26020; assay: MIC, broth microdilution; format: cell-based; conditions: bleomycin susceptibility, value before the MIC shift
[2] = target: T1, M. tuberculosis gyrase (MtbGyrase) (Mycobacterium tuberculosis, UniProt P9WG45+P9WG47); format: biochemical; conditions: no ATP
T1 sequence (P9WG45 whole entry, looked up): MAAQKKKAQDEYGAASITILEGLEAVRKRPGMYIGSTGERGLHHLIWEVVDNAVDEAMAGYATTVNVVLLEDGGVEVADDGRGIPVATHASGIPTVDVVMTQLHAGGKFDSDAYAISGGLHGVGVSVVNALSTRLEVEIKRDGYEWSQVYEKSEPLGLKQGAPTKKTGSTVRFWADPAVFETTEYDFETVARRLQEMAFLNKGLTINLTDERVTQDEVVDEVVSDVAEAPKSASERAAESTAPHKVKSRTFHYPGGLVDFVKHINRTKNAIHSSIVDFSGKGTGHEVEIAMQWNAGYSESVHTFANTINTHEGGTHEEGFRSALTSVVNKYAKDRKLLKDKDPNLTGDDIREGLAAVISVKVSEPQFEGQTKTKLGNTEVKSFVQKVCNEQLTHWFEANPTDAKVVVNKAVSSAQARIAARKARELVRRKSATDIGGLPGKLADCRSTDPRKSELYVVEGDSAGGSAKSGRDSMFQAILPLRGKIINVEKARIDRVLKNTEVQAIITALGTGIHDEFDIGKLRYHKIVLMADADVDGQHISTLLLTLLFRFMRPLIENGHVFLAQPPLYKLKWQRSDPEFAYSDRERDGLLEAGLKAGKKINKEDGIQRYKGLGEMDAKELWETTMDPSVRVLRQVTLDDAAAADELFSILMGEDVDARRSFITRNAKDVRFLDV
T1 sequence (P9WG47 whole entry, looked up): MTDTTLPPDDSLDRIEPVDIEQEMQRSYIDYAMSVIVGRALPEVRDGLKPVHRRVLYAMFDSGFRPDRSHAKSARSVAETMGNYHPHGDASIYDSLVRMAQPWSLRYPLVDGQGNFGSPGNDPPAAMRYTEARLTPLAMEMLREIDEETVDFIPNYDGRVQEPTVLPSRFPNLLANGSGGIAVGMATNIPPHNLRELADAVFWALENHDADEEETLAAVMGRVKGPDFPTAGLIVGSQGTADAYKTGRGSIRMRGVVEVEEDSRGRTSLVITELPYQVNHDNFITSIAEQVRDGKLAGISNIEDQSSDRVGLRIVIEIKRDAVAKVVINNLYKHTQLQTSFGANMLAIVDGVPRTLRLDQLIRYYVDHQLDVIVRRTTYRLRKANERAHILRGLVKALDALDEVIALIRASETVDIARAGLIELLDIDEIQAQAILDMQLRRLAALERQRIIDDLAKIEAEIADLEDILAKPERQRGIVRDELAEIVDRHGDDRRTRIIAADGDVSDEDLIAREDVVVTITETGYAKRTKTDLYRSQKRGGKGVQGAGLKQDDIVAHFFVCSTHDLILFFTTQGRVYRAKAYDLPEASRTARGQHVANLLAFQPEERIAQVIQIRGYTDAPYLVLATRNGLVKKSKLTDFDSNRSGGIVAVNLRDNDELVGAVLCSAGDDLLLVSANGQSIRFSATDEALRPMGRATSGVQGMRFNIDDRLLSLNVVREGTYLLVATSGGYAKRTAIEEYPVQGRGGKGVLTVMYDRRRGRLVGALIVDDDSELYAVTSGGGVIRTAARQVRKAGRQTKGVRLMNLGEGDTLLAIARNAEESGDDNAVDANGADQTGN

E. coli WO153 = assay: Macromolecule incorporation assay; format: cell-based, Escherichia coli; conditions: 8x MIC of evybactin
[3] = test system: commensal bacteria, including Lactobacillus sp. and Bacteroides sp.; assay: Activity against commensal bacteria; format: cell-based
[4] = test system: M. tuberculosis H37Rv mc^26020; assay: Vitamin B12 competition assay; format: cell-based, Mycobacterium tuberculosis; conditions: 1,000-fold molar excess of vitamin B12, 7 days, 37 °C
[5] = target: T1, M. tuberculosis gyrase (MtbGyrase); assay: Supercoiling assay; format: biochemical
mouse = assay: Toxicity in a mouse; format: in vivo; conditions: intraperitoneally, 100 mg kg^−1, survival observed for 24 hours
E. coli gyrase = E. coli gyrase (Escherichia coli, UniProt P0AES4+P0AES6); assay: Supercoiling assay; format: biochemical; conditions: 100 μM evybactin, 0–20 nM enzyme, strong cleavage visible at 5 nM enzyme
Chain of E. coli gyrase (P0AES4 whole entry, one chain of several): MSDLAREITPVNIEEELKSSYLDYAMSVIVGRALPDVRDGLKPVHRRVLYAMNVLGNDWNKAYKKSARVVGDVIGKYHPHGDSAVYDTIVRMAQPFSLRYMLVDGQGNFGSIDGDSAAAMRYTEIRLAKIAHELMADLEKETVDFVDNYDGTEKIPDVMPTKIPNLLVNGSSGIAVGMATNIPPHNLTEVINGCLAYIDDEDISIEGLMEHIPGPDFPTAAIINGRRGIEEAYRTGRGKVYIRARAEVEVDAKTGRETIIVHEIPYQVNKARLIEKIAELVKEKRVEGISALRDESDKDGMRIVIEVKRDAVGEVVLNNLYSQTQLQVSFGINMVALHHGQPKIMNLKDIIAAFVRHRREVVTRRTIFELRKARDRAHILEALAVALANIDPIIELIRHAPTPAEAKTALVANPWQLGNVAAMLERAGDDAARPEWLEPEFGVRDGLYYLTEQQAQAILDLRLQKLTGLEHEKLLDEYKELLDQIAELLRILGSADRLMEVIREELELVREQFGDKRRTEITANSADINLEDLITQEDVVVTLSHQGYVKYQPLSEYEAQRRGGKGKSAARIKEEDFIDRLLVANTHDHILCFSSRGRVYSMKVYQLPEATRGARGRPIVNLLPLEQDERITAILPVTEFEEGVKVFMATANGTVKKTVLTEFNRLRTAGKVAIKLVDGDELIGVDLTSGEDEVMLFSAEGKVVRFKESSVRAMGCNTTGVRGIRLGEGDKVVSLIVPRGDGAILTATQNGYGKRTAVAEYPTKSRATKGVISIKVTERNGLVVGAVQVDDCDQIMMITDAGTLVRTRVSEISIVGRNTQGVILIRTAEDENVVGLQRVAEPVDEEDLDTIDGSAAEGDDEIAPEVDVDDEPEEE

E. coli topo IV = E. coli topo IV (Escherichia coli, UniProt P0AFI2+P20083); assay: Supercoil relaxation assay; format: biochemical; conditions: 100 μM evybactin, 0–20 nM enzyme
M. tuberculosis = assay: Cell elongation, microscopy; format: cell-based, Mycobacterium tuberculosis
[6] = test system: M. tuberculosis H37Rv mc^26020; assay: Time-dependent killing; format: cell-based, Mycobacterium tuberculosis
MtbGyrase = MtbGyrase (Mycobacterium tuberculosis, UniProt P9WG45+P9WG47); format: biochemical
Chain of MtbGyrase (P9WG45 whole entry, looked up): as the sequence (P9WG45 whole entry, looked up) above
Chain of MtbGyrase (P9WG47 whole entry, looked up): as the sequence (P9WG47 whole entry, looked up) above

bleomycin
MIC (before shift) [1]: 0.06 µg/mL

C[C@@H](O)[C@H](NC(=O)[C@H](Cc1c[nH]c2ccccc12)NC=O)C(=O)N[C@H](CCCNC(=N)N)C(=O)N[C@@H]1C(=O)N[C@@H](Cc2cncn2C)C(=O)N[C@H](C(=O)O)CC(=O)N[C@H](CO)C(=O)N[C@@H](Cc2ccccc2)C(=O)NCC(=O)N[C@H](CCCNC(=N)N)C(=O)N[C@@H](CO)C(=O)N[C@H](C(=O)O)CC(=O)O[C@@H]1C [evybactin] (For-WT[dR]T[His(π-Me)][βAsp][dS]FG[dR]S[βAsp]; ester 4-C)
DNA cleavage in the absence of ATP [2]: little to no cleavage
DNA synthesis (^14C-thymidine incorporation) (E. coli WO153): inhibits DNA synthesis
RNA, protein and fatty acid synthesis (label incorporation) (E. coli WO153): less of an effect
toxicity against human cells (FaDu): no toxicity
activity against commensal bacteria [3]: no activity
toxicity against human cells (HepG2): no toxicity
solubility (Solubility in water): > 40 mg/mL
toxicity against human cells (HEK293): no toxicity
effect of vitamin B12 on evybactin susceptibility [4]: no change in the susceptibility
supercoiling activity and DNA cleavage [5]: inhibited the supercoiling activity
toxicity, survival (mouse): no indications of toxicity
DNA cleavage (E. coli gyrase): stimulated DNA cleavage
DNA cleavage (E. coli topo IV): stimulated DNA cleavage
cell length versus non-treated cells (M. tuberculosis): approximately two times longer
killing ability [6]: highly bactericidal

COc1c(N2C[C@@H]3CCCN[C@@H]3C2)c(F)cc2c(=O)c(C(=O)O)cn(C3CC3)c12 [moxifloxacin]
ATPase rate (Vmax) (MtbGyrase): 0.4 ± 0.1 molecules of ATP per second per enzyme
